Test results: patent US6689381B2, “Liposomal benzoquinazoline thymidylate synthase inhibitor formulations” (OSI Pharmaceuticals, Inc., priority 2000, dated 2004)

System: human colon tumor xenograft model (HCT-8, thymidine kinase (TK)-/-)
Experiment: HCT-8 xenograft, NX1843 dose schedule study and combinations with 5-FU, NX211 and GW1843 (Table 27)
Type: in vivo, nude mice
Procedure: Female Nu/Nu mice (18-24 g, 10-14 weeks old) were obtained from Harlan Sprague Dawley, and housed in microisolator filtration racks and maintained with filtered acidified water and sterile lab chow ad libitum. […] Animals were allowed to acclimate to their new environment for 1 week prior to tumor cell implantation. Tumors were established by injecting harvested tumor cells in a single subcutaneous site on the flank of the mice in the axillary region. The tumors were grown until approximately 200+/−50 mm^3 in size. The animals were then sorted according to body weight, grouped four animals/cage, and tattooed on the tail for permanent identification. Groups consisting of 8 tumor-bearing mice each were administered weekly doses of experimental agents by IV bolus injection through the tail vein. Tumor volumes were determined with vernier caliper measurements taken at right angles using the formula, (L×W^2/2) and body weights, were collected twice weekly. Data was plotted as % change in body weight vs. time in days, and % tumor volume increase vs. days.
T=(mean) time in days for treated group to reach cutoff size (2 grams)
C=(mean) time in days for control group to reach cutoff size (2 grams)
WC is the mean tumor weight of control group at time x
Wt is mean tumor weight of treated group at time x
% Regression=100 (Wo−Wi)/Wo; where Wo is the mean tumor weight for treated group at the initiation of treatment and Wi=the mean tumor weight for that group at time some time x after treatment.
In addition to these dose groups the free drug was dosed at 100 mg/kg on days 1-5, and repeated for a second week.

SMILES: O=c1[nH]cc(F)c(=O)[nH]1 [Lot 5-FU, 5-fluorourcil, reference compound]
- % TGI (100 mg/kg, QD1, 8): 72%
- Cures (100 mg/kg, QD1, 8): 0
- LCK (100 mg/kg, QD1, 8): 1.5
- % Regression day 22 (100 mg/kg, QD1, 8, day 22): 0%
- log cell kill (LCK) (iv, NX1843 25 mg/kg d1,8, 15 mg/kg QD(1,3,5)×2 or 7.5 mg/kg QD(1-5)×2, GW1843 100 mg/kg d1-5 ×2, 5FU 100 mg/kg d1,8, NX211 6 mg/kg d1,8, combinations at same doses): 1.5
